According to patent US10590118B2, “Bicyclic heterocyclic derivatives as bromodomain inhibitors” (Orion Corporation, priority 2014, dated 2020):
Structures can show the parent of a compound that is named as a salt.

target: T1, Bet bromodomain protein (BRD4) (Homo sapiens, UniProt O60885); assay: Bet bromodomain TR-FRET assay; assay type: binding; conditions: 300 nM acetyl histone peptide substrate, results given as Group A/B/C
T1 construct: made in house
Description: In-Vitro Biochemical Data of bicyclic heterocyclic derivatives in time-resolved fluorescence resonance energy transfer (TR-FRET) assay.
The Bet brommodomain TR-FRET assay has been used to identify compounds that bind to bet bromodomain and prevent its interaction with acetylated histone peptides.
In the assay, optimized concentration of in-house Bet bromodomain protein (BRD4) and 300 nM of acetyl histone peptide substrate were diluted in assay buffer (50 mM HEPES, pH: 7.5, 50 mM NaCl, 500 μM CHAPS) and were added to the positive control and test control wells in a 384 well plate. Substrate control wells have 300 nM of acetyl histone peptide substrate diluted in assay buffer. Buffer blank wells were added with assay buffer. The reaction mixture was allowed for incubation at room temperature for 30 mins. Stock solutions of test compounds at 20 mM DMSO are prepared. Compounds are serially diluted and added to the test wells in 384-well polypropylene plates. The reaction mixture was further incubated for 30 mins at room temperature on a plate shaker. 2 nM of Europium labeled streptavidn and 10 nM of XL-665 labeled antibody diluted in detection buffer (50 mM HEPES, pH: 7.5, 50 mM NaCl, 500 μM CHAPS and 800 mM KF) were added to all the wells excluding the buffer blank wells. The reaction plate was incubated for additional 30 mins at room temperature on plate shaker. The plate was read in Perkin Elmer WALLAC 1420 Multilabel Counter Victor 3 (Ex: 340 nm Em: 615 and 665 nm). The amount of displacement of the peptide was measured as ratio of specific 665 nm energy transfer signal to 615 nm signals. The compounds IC50 was determined by fitting the dose response data to sigmoid curve fitting equation using Graph Pad Prism software V5.

Row | IC50 | SMILES
1 | ≤ 1000 nM | COc1cc2c(cc1-c1c(C)noc1C)OCC(=O)N2Cc1ccc(C)nc1 [Compound 32, 7-(3,5-dimethylisoxazol-4-yl)-6-methoxy-4-((6-methylpyridin-3-yl)methyl)-2H-benzo[b][1,4]oxazin-3(4H)-one]
2 | > 3000 nM | COc1cc2c(cc1-c1c(C)noc1C)c(C#N)c(C)c(=O)n2CCc1ccc(Cl)cc1 [Compound 105, 1-(4-chlorophenethyl)-6-(3,5-dimethylisoxazol-4-yl)-7-methoxy-3-methyl-2-oxo-1,2-dihydroquinoline-4-carbonitrile]
3 | > 3000 nM | COc1cc2c(ccc(=O)n2Cc2ccccn2)cc1-n1c(C)nnc1C [Compound 3, 6-(3,5-dimethyl-4H-1,2,4-triazol-4-yl)-7-methoxy-1-(pyridin-2-ylmethyl)quinolin-2(1H)-one]
4 | ≤ 1000 nM | Cc1noc(C)c1-c1cc2ccc(=O)n(Cc3ccc(Cl)cn3)c2cc1O [Compound 73, 1-((5-chloropyridin-2-yl)methyl)-6-(3,5-dimethylisoxazol-4-yl)-7-hydroxyquinolin-2(1H)-one]
5 | ≤ 1000 nM | COc1cc2c(cc1-c1c(C)noc1C)OCC(=O)N2C(C)c1cccnc1 (single isomer, unassigned) [Compound 24, 7-(3,5-dimethytisoxazol-4-yl)-6-methoxy-4-(1-(pyridin-3-yl)ethyl)-2H-benzo[b][1,4]oxazin-3(4H)-one]
6 | ≤ 1000 nM | Cc1noc(C)c1-c1cc2ccc(=O)n(Cc3ccccn3)c2cc1OCCC1CCNC1 (stereo not drawn) [Compound 89, 6-(3,5-dimethylisoxazol-4-yl)-1-(pyridin-2-ylmethyl)-7-(2-(pyrrolidin-3-yl)ethoxy)quinolin-2(1H)-one hydrochloride]
7 | 1000 to 3000 nM | COc1cc2c(cc1-c1c(C)noc1C)OCC(=O)N2Cc1ccc(C#N)cn1 [Compound 27, 6-((7-(3,5-dimethylisoxazol-4-yl)-6-methoxy-3-oxo-2H-benzo[b][1,4]oxazin-4(3H)-yl)methyl)nicotinonitrile]
8 | ≤ 1000 nM | CCC(=O)N1CCC(CN2C(=O)COc3cc(-c4c(C)noc4C)c(OC)cc32)CC1 [Compound 90, 7-(3,5-dimethylisoxazol-4-yl)-6-methoxy-4-((1-propionylpiperidin-4-yl)methyl)-2H-benzo[b][1,4]oxazin-3(4H)-one]
9 | > 3000 nM | COc1cc2c(ccc(=O)n2S(=O)(=O)c2ccc(Cl)cc2)cc1-c1c(C)noc1C [Compound 14, 1-((4-chlorophenyl)sulfonyl)-6-(3,5-dimethylisoxazol-4-yl)-7-methoxyquinolin-2(1H)-one]
10 | ≤ 1000 nM | Cc1noc(C)c1-c1cc2ccc(=O)n(Cc3ccccn3)c2cc1O [Compound 72, 6-(3,5-dimethylisoxazol-4-yl)-7-hydroxy-1-(pyridin-2-ylmethyl)quinolin-2(1H)-one]
11 | 1000 to 3000 nM | Cc1noc(C)c1-c1cc2ccc(=O)n(Cc3ccccn3)c2cc1OC(F)(F)F [Compound 85, 6-(3,5-dimethylisoxazol-4-yl)-1-(pyridin-2-ylmethyl)-7-(trifluoromethoxy)quinolin-2(1H)-one]
12 | 1000 to 3000 nM | COc1cc2c(cc1-c1c(C)noc1C)OCC(=O)N2C(C)c1ccccn1 (stereo not drawn) [Compound 31]
13 | ≤ 1000 nM | Cc1noc(C)c1-c1cc2ccc(=O)n(Cc3ccccn3)c2cc1OCC1CCNCC1 [Compound 77, 6-(3,5-dimethylisoxazol-4-yl)-7-(piperidin-4-ylmethoxy)-1-(pyridin-2-ylmethyl)quinolin-2(1H)-one]

Continued, compound first:

Row | SMILES | IC50
14 | COc1ccc(CN2C(=O)COc3cc(-c4c(C)noc4C)c(OC)cc32)cn1 [Compound 26, 7-(3,5-dimethylisoxazol-4-yl)-6-methoxy-4-((6-methoxypyridin-3-yl)methyl)-2H-benzo[b][1,4]oxazin-3(4H)-one] | ≤ 1000 nM
15 | COc1cc2c(cc1-c1c(C)noc1C)C(=O)C(C)(C)C(=O)N2Cc1ccccn1 [Compound 51, 6-(3,5-dimethylisoxazol-4-yl)-7-methoxy-3,3-dimethyl-1-(pyridin-2-ylmethyl)quinoline-2,4(1H,3H)-dione] | 1000 to 3000 nM
16 | COc1cc2c(cc1-c1c(C)noc1C)c(C(F)(F)F)cc(=O)n2Cc1ccccn1 [Compound 54, 6-(3,5-dimethytisoxazol-4-yl)-7-methoxy-1-(pyridin-2-ylmethyl)-4-(trifluoromethyl)quinolin-2(1H)-one] | > 3000 nM
17 | COc1cc2c(cc1-c1c(C)noc1C)cc(CC#N)c(=O)n2CCc1ccc(Cl)cc1 [Compound 106, 2-(1-(4-chlorophenethyl)-6-(3,5-dimethylisoxazol-4-yl)-7-methoxy-2-oxo-1,2-dihydroquinolin-3-yl)acetonitrile] | ≤ 1000 nM
18 | COc1cc2c(cc1-c1c(C)noc1C)OCC(=O)N2C(C)c1cccnc1 (single isomer, unassigned) [Compound 25, 7-(3,5-dimethytisoxazol-4-yl)-6-methoxy-4-(1-(pyridin-3-yl)ethyl)-2H-benzo[b][1,4]oxazin-3(4H)-one] | 1000 to 3000 nM
19 | Cc1noc(C)c1-c1cc2ccc(=O)n(Cc3ccccn3)c2cc1OCC(F)(F)F [Compound 74, 6-(3,5-dimethylisoxazol-4-yl)-1-(pyridin-2-ylmethyl)-7-(2,2,2-trifluoroethoxy)quinolin-2(1H)-one] | ≤ 1000 nM
20 | COc1cc2c(cc1-c1c(C)noc1C)OC(C)(C)C(=O)N2Cc1cccnc1 [Compound 49, 7-(3,5-dimethylisoxazol-4-yl)-6-methoxy-2,2-dimethyl-4-(pyridin-3-ylmethyl)-2H-benzo[b][1,4]oxazin-3(4H)-one] | ≤ 1000 nM
21 | COc1cc2c(cc1-c1c(C)noc1C)cc(C(O)C(F)(F)F)c(=O)n2Cc1ccccn1 (racemic) [Compound 101, 6-(3,5-dimethylisoxazol-4-yl)-methoxy-1-(pyridin-2-ylmethyl)-3-(2,2,2-trifluoro-1-hydroxyethyl)quinolin-2(1H)-one] | ≤ 1000 nM
22 | COc1cc2c(ccc(=O)n2Cc2ccccn2)cc1-c1c(C2CC2)noc1C [Compound 62, 6-(3-cyclopropyl-5-methylisoxazol-4-yl)-7-methoxy-1-(pyridin-2-ylmethyl)quinolin-2(1H)-one] | ≤ 1000 nM
23 | COc1cc2c(cc1-c1c(C)noc1C)OCC(=O)N2C(C)c1ccc(Cl)cc1 (single isomer, unassigned) [Compound 33, 4-(1-(4-chlorophenyl)ethyl)-7-(3,5-dimethylisoxazol-4-yl)-6-methoxy-2H-benzo[b][1,4]oxazin-3(4H)-one] | 1000 to 3000 nM
24 | COc1cc2c(ccc(=O)n2Cc2ccccn2)cc1-c1c(C)noc1C [Compound 46, 6-(3,5-dimethylisoxazol-4-yl)-7-methoxy-1-(pyridin-2-ylmethyl)quinolin-2(1H)-one] | ≤ 1000 nM
25 | Cc1noc(C)c1-c1cc2ccc(=O)n(Cc3ccccn3)c2cc1OCCN1CCOCC1 [Compound 75, 6-(3,5-dimethylisoxazol-4-yl)-7-(2-morpholinoethoxy)-1-(pyridin-2-ylmethyl)quinolin-2(1H)-one] | 1000 to 3000 nM
26 | COc1cc2c(ccc(=O)n2Cc2ncccc2F)cc1-c1c(C)noc1C [Compound 9, 6-(3,5-dimethylisoxazol-4-yl)-1-((3-fluoropyridin-2-yl)methyl)-7-methoxyquinolin-2(1H)-one] | ≤ 1000 nM
27 | COc1cc2c(cc1-c1c(C)noc1C)cc(CF)c(=O)n2Cc1ccccn1 [Compound 97, 6-(3,5-dimethylisoxazol-4-yl)-3-(fluoromethyl)-7-methoxy-1-(pyridin-2-ylmethyl)quinolin-2(1H)-one] | ≤ 1000 nM
28 | COc1ccc(Cn2c(=O)ccc3cc(-c4c(C)noc4C)c(OC)cc32)nc1 [Compound 2, 6-(3,5-dimethytisoxazol-4-yl)-7-methoxy-1-((5-methoxypyridin-2-yl)methyl)quinolin-2(1H)-one] | ≤ 1000 nM
29 | COc1cc2c(cc1-c1c(C)noc1C)cc(C(O)C(F)(F)F)c(=O)n2Cc1ccccn1 (single isomer, unassigned) [Compound 102, 6-(3,5-dimethylisoxazol-4-yl)-7-methoxy-1-(pyridin-2-ylmethyl)-3-(2,2,2-trifluoro-1-hydroxyethyl)quinolin-2(1H)-one] | ≤ 1000 nM
30 | COc1cc2c(ccc(=O)n2Cc2ccc(Cl)cc2)cc1-c1c(C)noc1C [Compound 56, 1-(4-chlorobenzyl)-6-(3,5-dimethylisoxazol-4-yl)-7-methoxyquinolin-2(1H)-one] | ≤ 1000 nM
31 | COc1cc2c(cc1-c1c(C)noc1C)OCC(=O)N2Cc1ccc(F)cn1 [Compound 29, 7-(3,5-dimethylisoxazol-4-yl)-4-((5-fluoropyridin-2-yl)methyl)-6-methoxy-2H-benzo[b][1,4]oxazin-3(4H)-one] | ≤ 1000 nM
32 | COc1cc2c(cc1-c1c(C)noc1C)OCC(=O)N2CC1CCOCC1 [Compound 23, 7-(3,5-dimethytisoxazol-4-yl)-6-methoxy-4-((tetrahydro-2H-pyran-4-yl)methyl)-2H-benzo[b][1,4]oxazin-3(4H)-one] | ≤ 1000 nM
33 | COc1cc2c(cc1-c1c(C)noc1C)cc(C)c(=O)n2Cc1ccccn1 [Compound 50, 6-(3,5-dimethylisoxazol-4-yl)-7-methoxy-3-methyl-1-(pyridin-2-ylmethyl)quinolin-2(1H)-one] | ≤ 1000 nM
